Source: US20030005484A1, “Microbiocidal and pesticidal aromatic aldehydes” (ProGuard, Inc., priority 1994, published 2003)

Columns and labels:
[1] = system: grape phylloxera; assay: grape phylloxera adult and nymphal mortality, root dip; assay type: in vivo, Daktulosphaira vitifoliae; settings: for mortality of adults and nymphs: root dip, 5 days
Procedure: Approximately twenty four eggs of phylloxera were allowed to develop for up to 30 days on standard excised grape roots. At around 30 days, some of the insects were nymphs while others were adults. New eggs were removed during the process. Insect infected roots were submerged into a test formula for 6 seconds then set aside to dry in the air. The percentage of live insects, as defined by growth, oviposition or limb movement, was determined after 5 days. An insect was considered dead if it abandoned its feed site.
In an initial test, doses of 20,000 ppm cinnamic aldehyde in water (i.e., 2% cinnamic aldehyde) with various additives were evaluated. Cinnamic aldehyde without any additives produced 83.3% mortality. With-1% Tween 80 added, 91.7% mortality was seen. With 6% NaHCO3 added to a solution of 2% cinnamic aldehyde, 91.7% mortality was seen. With 1% Tween 80 and 6% NaHCO3 added to a solution of 2% cinnamic aldehyde, 100% mortality was seen. Water with no additives produced no mortality, while a positive control solution of 250 ppm malathion in water gave 100% mortality.
For nymph and adult tests, eggs were placed on excised root pieces similar to those used for rearing purposes and these were sealed in Petri dishes and held at 24° C. for 18-25 days to allow insects to hatch, initiate feeding sites and develop. At about this time about half the population was in the adult stage. Prior to testing, the population on each root was determined as well as the developmental stage of each insect. Eggs were removed. These root pieces were then dipped for 5 sec into test solutions and allowed to air dry before they were returned to Petri dishes, sealed and placed back in the temperature chamber at 24° C. Mortality was determined after 5 days. Insects were considered dead if they appeared black or desiccated and if they had not developed since the pre-treatment reading and had laid no or few new eggs.

[2] = system: rust; assay: rust (and spores) on roses, disease rating / MPDC after foliar spray; assay type: in vivo, Phragmidrium mucronatrum
Procedure: Each formulation is evaluated for its effect on specific pests and/or plant host using any of the compounds of formula (1) as well as other components of the formulation such as Tween 80 and/or sodium bicarbonate, with the combination and effective amount of each component adapted for a particular application to minimize toxicity while maintaining or increasing the antipathogenic effect of the formulation. The effective amount of each component may be determined by systematically varying the amount of that component in a test formulation, treating a plant of interest with the test formulation, and monitoring the level of pest infestation compared to an untreated control plant. An effective amount of a test component is identified as the amount that controls the growth of the pathogen on the plant host, thus reducing the disease rating of the plant. The mean percentage disease […] (MPDC) can be calculated for each particular application. MPDC is defined by the formula: [formula] Eight cultivars of rose were tested to investigate the effect of a cinnamic aldehyde/NaHCO3 formulation on rust and spores. The cultivars used included Moss unnamed (Moss), […], Rosette Delize (Hybrid Tea), Rosa Rugosa Rubra (Rugosa), Abel Morrison (Hybrid perpetual), John Laing, Betty Prior, and Rose de Roi. […] The Hybrid Tea and Hybrid perpetual were rated 3 and the Rugosa was rated 1. […] Control plants received no treatment. […] Moreover, the treatment appeared to have induced systemic resistance. […] Plants were an average of 0.86 m apart. […] Controls were untreated plants. […] Weekly reviews were made of the various plants. […] Six cultivars of infected rose in dedicated experimental rose gardens were used. Four Mrs. John Laing (Hybrid perpetual) and two Marchionese of Londonderry (Hybrid perpetual) rose plants were treated with one of two formulations of coniferyl aldehyde. […] The first two Mrs. […] Mrs. […] Both Marchionese of Londonderry plants (P5 and P6) were rated 5 for powdery mildew and rust after Paulus and Nelson (supra). Two treatment formulae were used for this trial. […] Control plants were sprayed with water alone. The change in the rating from pre-treatment to post-treatment was calculated as the mean percentage of disease control (MPDC) as described herein.

[3] = system: black bean aphid, Tetranychus urticae; assay: aphid Petri dish bioassay; settings: for mortality: three hours contact
Procedure: Activity of cinnamic aldehyde and/or coniferyl aldehyde against black bean aphid, Tetranychus urticae, and silverleaf white fly, Bemisia argentifolii was determined as follows:
Petri dishes (60 mm) were treated with cinnamic aldehyde at 10-25,000 ppm in 2% Tween 80 and 6% NaHCO3 dissolved in water, and the dishes allowed to air dry. Twenty adult aphids (Tetranychus urticae) were put in each dish, (replicate 10 times). The mortality after three hours in contact with a treated plate was compared to that of aphids in petri dishes treated only with diluent. Malathion (250 ppm) was used as a positive control.

[4] = system: leafhoppers (western grape leafhopper and Virginia creeper leafhopper nymphs); assay: leafhoppers on grapevines, 1% and 2% spray; assay type: in vivo; settings: for mean number of leafhoppers per leaf: one day after treatment, across cultivars, control 26.53
Procedure: Treatment of leafhoppers (western grape leafhopper (WGL) and Virginia creeper leafhopper nymphs(VCLH)) on grapevines with cinnamic aldehyde was conducted to evaluate the protective effect of cinnamic aldehyde in different concentrations against leafhoppers on plants. A single application of 1% or 2% cinnamic aldehyde in 0.1% Tween-20 was sprayed onto the leaves of grapevines of different grape varietals (Cabernet Sauvignon, Chardonnay, Emerald Reisling and Pinot Noir) with a backpack CO2 powered sprayer at the field equivalent rate of approximately 150 gal./acre (0.5 gal. per treatment plot). Coverage on the bottom of grape leaves, where most leafhopper nymphs feed, ranged from 70%-80%. The number of leafhoppers on the leaves was counted prior to spraying and 1 day after spraying. Leafhopper numbers on grape vines were assessed by sampling 2 leaves from each of 3 grape vines per treatment (with a single vine buffer between each treatment), for which 2-3 replicates per treatment were examined. Control plants were untreated. Both concentrations of cinnamic aldehyde reduced the mean number of leafhoppers per leaf as compared to the control. The mean number of leafhoppers was defined as the sum of WGL plus VCLH per leaf.

[5] = potted roses, ~100 ml foliar spray of 5 g cinnamic aldehyde, 80 g NaHCO3, 10 g Tween 80 per 1000 g, weekly saponin, observed 8 weeks

## O=C/C=C/c1ccccc1 [cinnamic aldehyde]
[1]; 2% cinnamic aldehyde with 1% Tween 80
  mortality of adults and nymphs: 91.7%
[1]; 2% cinnamic aldehyde with 1% Tween 80 and 6% NaHCO3
  mortality of adults and nymphs: 100%
[1]; 2% cinnamic aldehyde with 6% NaHCO3
  mortality of adults and nymphs: 91.7%
[1]; Daktulosphaira vitifoliae, 120 h, 2% cinnamic aldehyde (20,000 ppm) in water, no additives, roots submerged 6 seconds, read after 5 days, read-out: mortality of adults and nymphs
  mortality at 20000 ppm: 83.3%
[2]; field rose Rose de Roi, same single spray, five week trial
  Mean Percentage of Disease Control (MPDC), rust: 85.0%
[2]; [5]
  rust after a single treatment: eradicative
  spores after a single treatment: eradicative
[3]; 10 ppm in 2% Tween 80 and 6% NaHCO3
  mortality: 25%
[3]; 100 ppm in 2% Tween 80 and 6% NaHCO3
  mortality: 50%
[3]; 2500 ppm and above in 2% Tween 80 and 6% NaHCO3, three hours contact with treated dish
  aphids killed: 100%
[4]; 1% in 0.1% Tween-20
  mean number of leafhoppers per leaf: 4.33 leafhoppers per leaf
[4]; 2% in 0.1% Tween-20
  mean number of leafhoppers per leaf: 2.13 leafhoppers per leaf
[4]; Cabernet, 1% CNMA, control 15.33
  MEAN LEAFHOPPERS/LEAF: 3.0
[4]; Chardonnay, 2% CNMA, control 23.75
  MEAN LEAFHOPPERS/LEAF: 3.83
[4]; Emerald Reisling, 1% CNMA, control 51.12
  MEAN LEAFHOPPERS/LEAF: 5.67
[4]; Pinot Noir, 2% CNMA, control 19.44
  MEAN LEAFHOPPERS/LEAF: 1.0
